Assay results published in patent US10202361B2, “Pyridazinones as herbicides” (E I DU PONT DE NEMOURS AND COMPANY, priority 2014, dated 2019).
Where two headings read alike, the source gives them in different places.

How the values were obtained:
Test in all cases: Test A pre-/postemergence greenhouse herbicide test
Assay type in all cases: in vivo
[1] = test system: barnyardgrass (Echinochloa crus-galli); conditions: Echinochloa crus-galli, 240 h, 0 to 100 scale (0 no effect, 100 complete control), approx. 10 d, read-out: Plant response rating, Barnyardgrass; for pest or weed control at 125 g/ha: 125 g ai/ha; for pest or weed control at 500 g/ha: 500 g ai/ha
In short: (§1)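 Injury was scored visually on a 0 to 100 scale, where 0 meant no effect and 100 complete control, relative to untreated plants after about 10 d in the greenhouse. Preemergence treatment was a directed soil spray on seeded loam–sand; postemergence spray went onto one- to two-leaf plants.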

[2] = test system: corn (Zea mays); conditions: Zea mays, 240 h, 0 to 100 scale (0 no effect, 100 complete control), approx. 10 d; for Corn plant response rating (crop injury, 0 = no effect, 100 = complete kill) at 125 g/ha: 125 g ai/ha; for Corn plant response rating (crop injury, 0 = no effect, 100 = complete kill) at 500 g/ha: 500 g ai/ha
In short: as §1

[3] = test system: crabgrass, Large (large crabgrass, Digitaria sanguinalis); conditions: Digitaria sanguinalis, 240 h, 0 to 100 scale (0 no effect, 100 complete control), approx. 10 d, read-out: Plant response rating, Crabgrass, Large; for pest or weed control at 125 g/ha: 125 g ai/ha; for pest or weed control at 500 g/ha: 500 g ai/ha
In short: as §1

[4] = test system: foxtail, giant (giant foxtail, Setaria faberii); conditions: Setaria faberi, 240 h, 0 to 100 scale (0 no effect, 100 complete control), approx. 10 d, read-out: Plant response rating, Foxtail, Giant; for pest or weed control at 125 g/ha: 125 g ai/ha; for pest or weed control at 500 g/ha: 500 g ai/ha
In short: as §1

[5] = test system: morningglory (Ipomoea spp.); conditions: Ipomoea, 240 h, 0 to 100 scale (0 no effect, 100 complete control), approx. 10 d, read-out: Plant response rating, Morningglory; for pest or weed control at 125 g/ha: 125 g ai/ha; for pest or weed control at 500 g/ha: 500 g ai/ha
In short: as §1

[6] = test system: pigweed (Amaranthus retroflexus); conditions: Amaranthus retroflexus, 240 h, 0 to 100 scale (0 no effect, 100 complete control), approx. 10 d, read-out: Plant response rating, Pigweed; for pest or weed control at 125 g/ha: 125 g ai/ha; for pest or weed control at 500 g/ha: 500 g ai/ha
In short: as §1

[7] = test system: velvetleaf (Abutilon theophrasti); conditions: Abutilon theophrasti, 240 h, 0 to 100 scale (0 no effect, 100 complete control), approx. 10 d, read-out: Plant response rating, Velvetleaf; for pest or weed control at 125 g/ha: 125 g ai/ha; for pest or weed control at 500 g/ha: 500 g ai/ha
In short: as §1

[8] = test system: wheat (Triticum aestivum); conditions: Triticum aestivum, 240 h, 0 to 100 scale (0 no effect, 100 complete control), approx. 10 d, read-out: Plant response rating, Wheat; for plant injury at 125 g/ha: 125 g ai/ha; for plant injury at 500 g/ha: 500 g ai/ha
In short: as §1

Structure (SMILES) | pest or weed control at 125 g/ha ([1]; post-emergence, Postemergence) [%] | pest or weed control at 500 g/ha ([1]; post-emergence, Postemergence) [%] | pest or weed control at 125 g/ha ([1]; pre-emergence, Preemergence) [%] | pest or weed control at 500 g/ha ([1]; pre-emergence, Preemergence) [%] | Corn plant response rating (crop injury, 0 = no effect, 100 = complete kill) at 125 g/ha ([2]; post-emergence, Postemergence) [%] | Corn plant response rating (crop injury, 0 = no effect, 100 = complete kill) at 500 g/ha ([2]; post-emergence, Postemergence) [%] | Corn plant response rating (crop injury, 0 = no effect, 100 = complete kill) at 125 g/ha ([2]; pre-emergence, Preemergence) [%] | Corn plant response rating (crop injury, 0 = no effect, 100 = complete kill) at 500 g/ha ([2]; pre-emergence, Preemergence) [%] | pest or weed control at 125 g/ha ([3]; post-emergence, Postemergence) [%] | pest or weed control at 500 g/ha ([3]; post-emergence, Postemergence) [%] | pest or weed control at 125 g/ha ([3]; pre-emergence, Preemergence) [%] | pest or weed control at 500 g/ha ([3]; pre-emergence, Preemergence) [%] | pest or weed control at 125 g/ha ([4]; post-emergence, Postemergence) [%] | pest or weed control at 500 g/ha ([4]; post-emergence, Postemergence) [%] | pest or weed control at 125 g/ha ([4]; pre-emergence, Preemergence) [%] | pest or weed control at 500 g/ha ([4]; pre-emergence, Preemergence) [%] | pest or weed control at 125 g/ha ([5]; post-emergence, Postemergence) [%] | pest or weed control at 500 g/ha ([5]; post-emergence, Postemergence) [%] | pest or weed control at 125 g/ha ([5]; pre-emergence, Preemergence) [%] | pest or weed control at 500 g/ha ([5]; pre-emergence, Preemergence) [%] | also measured
Cc1cc(=O)n(-c2ccc(F)cc2)nc1Cn1ccc(C(F)(F)F)n1 [Compound 3, 2-(4-fluorophenyl)-5-methyl-6-[[3-(trifluoromethyl)-1H-pyrazol-1-yl]methyl]-3(2H)-pyridazinone] | 0 | 10 | 0 | 20 | 0 | 20 | 0 | 0 | 10 | 30 | 30 | 90 | 10 | 30 | 0 | 40 | 60 | 70 | 0 | 0 | pest or weed control at 125 g/ha ([6]; post-emergence, Postemergence): 60%; pest or weed control at 500 g/ha ([6]; post-emergence, Postemergence): 70%; pest or weed control at 125 g/ha ([6]; pre-emergence, Preemergence): 20%; pest or weed control at 500 g/ha ([6]; pre-emergence, Preemergence): 80%; pest or weed control at 125 g/ha ([7]; post-emergence, Postemergence): 30%; pest or weed control at 500 g/ha ([7]; post-emergence, Postemergence): 80%; pest or weed control at 125 g/ha ([7]; pre-emergence, Preemergence): 0%; pest or weed control at 500 g/ha ([7]; pre-emergence, Preemergence): 20%; plant injury at 125 g/ha ([8]; post-emergence, Postemergence): 0%; plant injury at 500 g/ha ([8]; post-emergence, Postemergence): 0%; plant injury at 125 g/ha ([8]; pre-emergence, Preemergence): 0%; plant injury at 500 g/ha ([8]; pre-emergence, Preemergence): 0%
Cc1cc(=O)n(-c2ccc(C(F)(F)F)cc2)nc1Oc1ccnc(C(F)(F)F)c1 [Compound 5, 5-methyl-2-[4-(trifluoromethyl)phenyl]-6-[[2-(trifluoromethyl)-4-pyridinyl]oxy]-3(2H)-pyridazinone] | 20 | 70 | 40 | 90 | 20 | 30 | 0 | 10 | 50 | 80 | 100 | 100 | 60 | 90 | 90 | 100 | 60 | 100 | 60 | 80 | pest or weed control at 125 g/ha ([6]; post-emergence, Postemergence): 100%; pest or weed control at 500 g/ha ([6]; post-emergence, Postemergence): 100%; pest or weed control at 125 g/ha ([6]; pre-emergence, Preemergence): 100%; pest or weed control at 500 g/ha ([6]; pre-emergence, Preemergence): 100%; pest or weed control at 125 g/ha ([7]; post-emergence, Postemergence): 70%; pest or weed control at 500 g/ha ([7]; post-emergence, Postemergence): 100%; pest or weed control at 125 g/ha ([7]; pre-emergence, Preemergence): 20%; pest or weed control at 500 g/ha ([7]; pre-emergence, Preemergence): 100%; plant injury at 125 g/ha ([8]; post-emergence, Postemergence): 30%; plant injury at 500 g/ha ([8]; post-emergence, Postemergence): 40%; plant injury at 125 g/ha ([8]; pre-emergence, Preemergence): 0%; plant injury at 500 g/ha ([8]; pre-emergence, Preemergence): 10%
CCOc1cc(=O)n(-c2ccc(F)cc2)nc1C(=O)c1ccnc(C(F)(F)F)c1 [Compound 22, 5-ethoxy-2-(4-fluorophenyl)-6-[[2-(trifluoromethyl)-4-pyridinyl]carbonyl]-3(2H)-pyridazinone] | 20 | 100 | 20 | 80 | 50 | 90 | 0 | 20 | 60 | 100 | 100 | 100 | 60 | 100 | 90 | 100 | 40 | 100 | 30 | 100 | pest or weed control at 125 g/ha ([6]; post-emergence, Postemergence): 100%; pest or weed control at 500 g/ha ([6]; post-emergence, Postemergence): 100%; pest or weed control at 125 g/ha ([6]; pre-emergence, Preemergence): 100%; pest or weed control at 500 g/ha ([6]; pre-emergence, Preemergence): 100%; pest or weed control at 125 g/ha ([7]; post-emergence, Postemergence): 20%; pest or weed control at 500 g/ha ([7]; post-emergence, Postemergence): 50%; pest or weed control at 125 g/ha ([7]; pre-emergence, Preemergence): 40%; pest or weed control at 500 g/ha ([7]; pre-emergence, Preemergence): 100%; plant injury at 125 g/ha ([8]; post-emergence, Postemergence): 60%; plant injury at 500 g/ha ([8]; post-emergence, Postemergence): 90%; plant injury at 125 g/ha ([8]; pre-emergence, Preemergence): 10%; plant injury at 500 g/ha ([8]; pre-emergence, Preemergence): 40%
